The text below walks through data of article PMC2408963, “A Detailed Analysis of the Murine TAP Transporter Substrate Specificity” (PLoS ONE, 2008).

Where no end group is shown, it is not given here.

For data set [1], the system named is human TAP complexes. The data set is described as follows: Fluorescence polarization assay with insect cell-expressed human TAP. Format: binding.
Data set [2] relates to murine TAP1 or TAP2 protein alone.
Excerpt: Using the same insect cell system for TAP expression, a novel assay was established which is based on detecting fluorescence polarization rather than the activity of a radioactive tracer. […] To establish a fluorescence polarization assay, we determined the concentrations of reporter peptide and microsomes yielding the highest specific binding signal (mP reading).

Take “R9L-FITC: reporter peptide in which position 6 (Ser) of R9L was substituted by a Cys residue coupled to a fluorescein group (RRYNAC(fluorescein)TEL)”: the “affinity for human TAP compared with murine TAP” value in data set [1] is on record as “identical affinity”. In addition, the “binding to microsomes containing either murine TAP1 or TAP2 protein alone” value in data set [2] is “did not bind”.
